Experimental data: ChEMBL document CHEMBL1201861, “Genomics of Drug Sensitity in Cancer screening data, Wellcome Trust Sanger Institute”

Columns and labels:
Type in all cases: functional, cell-based
[1] = system: NCI-H1048; experiment: cells; conditions: Homo sapiens;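 further: growth inhibition of human NCI-H1048 cells, read out with a cell viability assay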
Description: SANGER: Inhibition of human NCI-H1048 cell growth in a cell viability assay.

[2] = system: TI-73; experiment: cells; conditions: Homo sapiens;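 further: cell viability assay measuring how much compounds suppress growth of the cultured cell line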
Description: SANGER: Inhibition of human TI-73 cell growth in a cell viability assay.

[3] = system: SW 1116; experiment: cells; conditions: Homo sapiens;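 further: growth inhibition of SW1116 cells, read out with a cell viability assay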
Description: SANGER: Inhibition of human SW1116 cell growth in a cell viability assay.

[4] = system: A549; experiment: cells; conditions: Homo sapiens;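 further: growth inhibition of A549 cells, read out with a cell viability assay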
Description: SANGER: Inhibition of human A549 cell growth in a cell viability assay.

[5] = system: CFPAC-1; experiment: cells; conditions: Homo sapiens;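 further: cell viability readout used to gauge suppression of CFPAC-1 cell proliferation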
Description: SANGER: Inhibition of human CFPAC-1 cell growth in a cell viability assay.

[6] = system: SW900; experiment: cells; conditions: Homo sapiens;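 further: IC50 is the concentration that inhibits SW900 cell growth, measured by a cell viability assay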
Description: SANGER: Inhibition of human SW900 cell growth in a cell viability assay.

[7] = system: BT-549; experiment: cells; conditions: Homo sapiens
Description: SANGER: Inhibition of human BT-549 cell growth in a cell viability assay.

[8] = system: RH-18; experiment: cells; conditions: Homo sapiens, Rh18;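 further: growth inhibition of human RH-18 cells, read out with a cell viability assay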
Description: SANGER: Inhibition of human RH-18 cell growth in a cell viability assay.

[9] = system: TGBC11TKB; experiment: cells; conditions: Homo sapiens;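 further: growth inhibition of human TGBC11TKB cells, measured by a cell viability assay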
Description: SANGER: Inhibition of human TGBC11TKB cell growth in a cell viability assay.

[10] = system: BALL-1; experiment: cells; conditions: Homo sapiens;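 further: growth inhibition of BALL-1 cells, read out with a cell viability assay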
Description: SANGER: Inhibition of human BALL-1 cell growth in a cell viability assay.

[11] = system: D-423MG; experiment: cells; conditions: Homo sapiens
Description: SANGER: Inhibition of human D-423MG cell growth in a cell viability assay.

[12] = system: H-EMC-SS; experiment: cells; conditions: Homo sapiens
Description: SANGER: Inhibition of human H-EMC-SS cell growth in a cell viability assay.

[13] = system: H9; experiment: cells; conditions: Homo sapiens
Description: SANGER: Inhibition of human H9 cell growth in a cell viability assay.

[14] = system: ZR-75-30; experiment: cells; conditions: Homo sapiens;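 further: growth inhibition of ZR-75-30 cells, measured with a cell viability readout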
Description: SANGER: Inhibition of human ZR-75-30 cell growth in a cell viability assay.

[15] = system: EPLC-272H; experiment: cells; conditions: Homo sapiens
Description: SANGER: Inhibition of human EPLC-272H cell growth in a cell viability assay.

[16] = system: OC-314; experiment: cells; conditions: Homo sapiens
Description: SANGER: Inhibition of human OC-314 cell growth in a cell viability assay.

[17] = system: NCI-H2029; experiment: cells; conditions: Homo sapiens;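 further: Read-out is a viability assay on the cultured cells, and IC50 is the concentration that suppresses cell growth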
Description: SANGER: Inhibition of human NCI-H2029 cell growth in a cell viability assay.

[18] = system: NCI-H1975; experiment: cells; conditions: Homo sapiens
Description: SANGER: Inhibition of human NCI-H1975 cell growth in a cell viability assay.

[19] = system: NCI-H2291; experiment: cells; conditions: Homo sapiens
Description: SANGER: Inhibition of human NCI-H2291 cell growth in a cell viability assay.

[20] = system: LU-135; experiment: cells; conditions: Homo sapiens
Description: SANGER: Inhibition of human LU-135 cell growth in a cell viability assay.

[21] = system: NCI-H1666; experiment: cells; conditions: Homo sapiens;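 further: growth inhibition of the cell line, read out with a cell viability assay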
Description: SANGER: Inhibition of human NCI-H1666 cell growth in a cell viability assay.

[22] = system: KNS-62; experiment: cells; conditions: Homo sapiens;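 further: inhibition of cell growth, read out with a cell viability assay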
Description: SANGER: Inhibition of human KNS-62 cell growth in a cell viability assay.

[23] = system: IPC-298; experiment: SANGER: Inhibition of human IPC-298 cell growth in a cell viability assay.
[24] = system: MES-SA; experiment: cells; conditions: Homo sapiens;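 further: growth inhibition of human MES-SA cells, read out with a cell viability assay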
Description: SANGER: Inhibition of human MES-SA cell growth in a cell viability assay.

[25] = system: COLO 205; experiment: cells; conditions: Homo sapiens
Description: SANGER: Inhibition of human COLO-205 cell growth in a cell viability assay.

[26] = system: MDA-MB-468; experiment: cells; conditions: Homo sapiens
Description: SANGER: Inhibition of human MDA-MB-468 cell growth in a cell viability assay.

[27] = system: Calu-1; experiment: SANGER: Inhibition of human Calu-1 cell growth in a cell viability assay.
[28] = system: CCF-STTG1; experiment: cells; conditions: Homo sapiens;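 further: growth inhibition of human CCF-STTG1 cells, determined with a cell viability read-out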
Description: SANGER: Inhibition of human CCF-STTG1 cell growth in a cell viability assay.

[29] = system: RT-4; experiment: SANGER: Inhibition of human RT4 cell growth in a cell viability assay.
[30] = system: C-4-II; experiment: SANGER: Inhibition of human C-4-II cell growth in a cell viability assay.
[31] = system: SNU-475; experiment: cells; conditions: Homo sapiens
Description: SANGER: Inhibition of human SNU-475 cell growth in a cell viability assay.

[32] = system: SK-CO-1; experiment: cells; conditions: Homo sapiens;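 further: growth inhibition of SK-CO-1 cells, determined by a viability readout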
Description: SANGER: Inhibition of human SK-CO-1 cell growth in a cell viability assay.

[33] = system: PLC-PRF-5; experiment: cells; conditions: Homo sapiens;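 further: growth inhibition of human PLC-PRF-5 cells, read out with a viability assay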
Description: SANGER: Inhibition of human PLC-PRF-5 cell growth in a cell viability assay.

[34] = system: SNG-M; experiment: cells; conditions: Homo sapiens
Description: SANGER: Inhibition of human SNG-M cell growth in a cell viability assay.

[35] = system: NCI-H1618; experiment: cells; conditions: Homo sapiens;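 further: growth inhibition of human NCI-H1618 cells, measured by a cell viability assay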
Description: SANGER: Inhibition of human NCI-H1618 cell growth in a cell viability assay.

[36] = system: DMS-53; experiment: cells; conditions: Homo sapiens;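 further: cell viability assay measuring growth inhibition of human DMS-53 cells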
Description: SANGER: Inhibition of human DMS-53 cell growth in a cell viability assay.

[37] = system: NCI-H838; experiment: cells; conditions: Homo sapiens;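 further: growth inhibition of human NCI-H838 cells, read out by a cell viability assay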
Description: SANGER: Inhibition of human NCI-H838 cell growth in a cell viability assay.

[38] = system: NCI-H1734; experiment: cells; conditions: Homo sapiens;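 further: growth inhibition of human NCI-H1734 cells, read out with a cell viability assay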
Description: SANGER: Inhibition of human NCI-H1734 cell growth in a cell viability assay.

[39] = system: MFE-296; experiment: SANGER: Inhibition of human MFE-296 cell growth in a cell viability assay.
[40] = system: ECC12; experiment: cells; conditions: Homo sapiens
Description: SANGER: Inhibition of human ECC12 cell growth in a cell viability assay.

[41] = system: Caov-4; experiment: cells; conditions: Homo sapiens
Description: SANGER: Inhibition of human Caov-4 cell growth in a cell viability assay.

[42] = system: RL95-2; experiment: cells; conditions: Homo sapiens;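 further: RL95-2 growth inhibition determined through a cell viability readout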
Description: SANGER: Inhibition of human RL95-2 cell growth in a cell viability assay.

[43] = system: HCC1143; experiment: cells; conditions: Homo sapiens;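 further: growth inhibition of human HCC1143 cells, read out with a cell viability assay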
Description: SANGER: Inhibition of human HCC1143 cell growth in a cell viability assay.

[44] = system: EFE-184; experiment: cells; conditions: Homo sapiens
Description: SANGER: Inhibition of human EFE-184 cell growth in a cell viability assay.

[45] = system: Caov-3 cell line; experiment: cells; conditions: Homo sapiens;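 further: cell growth inhibition read out by a viability assay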
Description: SANGER: Inhibition of human Caov-3 cell growth in a cell viability assay.

[46] = system: EW-12; experiment: SANGER: Inhibition of human EW-12 cell growth in a cell viability assay.
[47] = system: SKM-1; experiment: SANGER: Inhibition of human SKM-1 cell growth in a cell viability assay.
[48] = system: KP-N-RT-BM-1; experiment: SANGER: Inhibition of human KP-N-RT-BM-1 cell growth in a cell viability assay.
[49] = system: CRO-AP2; experiment: SANGER: Inhibition of human CRO-AP2 cell growth in a cell viability assay.
[50] = system: CP67-MEL; experiment: SANGER: Inhibition of human CP67-MEL cell growth in a cell viability assay.
[51] = system: NCI-H128; experiment: SANGER: Inhibition of human NCI-H128 cell growth in a cell viability assay.
[52] = system: CHP-134; experiment: SANGER: Inhibition of human CHP-134 cell growth in a cell viability assay.

In the case of `Cn1cc(/C=C2\C(=O)Nc3cccnc32)c2ccccc21`, the IC50 [1] is reported as over 2 µM, the IC50 [2] is reported as over 2 µM and the IC50 [3] is reported as over 2 µM. For the same compound, the IC50 [4] was over 2 µM, the IC50 [5] was over 2 µM and the IC50 [6] was over 2 µM. The IC50 [7] was over 2 µM, the IC50 [8] was over 2 µM and the IC50 [9] was over 2 µM. For the same compound, the IC50 [10] was over 2 µM, the IC50 [11] was over 2 µM and the IC50 [12] was 0.765 µM. For the same compound, the IC50 [13] was over 2 µM, the IC50 [14] was over 2 µM and the IC50 [15] was over 2 µM. For the same compound, the IC50 [16] was over 2 µM, the IC50 [17] was over 2 µM and the IC50 [18] was over 2 µM. It also gave an IC50 [19] of over 2 µM, an IC50 [20] of over 2 µM and an IC50 [21] of over 2 µM. For the same compound, the IC50 [22] was over 2 µM.
`O=c1[nH]c2ccccc2n1C1CCN(Cc2ccc(-c3nc4cc5[nH]cnc5cc4nc3-c3ccccc3)cc2)CC1` was tested, and the IC50 [23] was over 2.56 µM, the IC50 [24] was over 2.56 µM and the IC50 [25] was 2 µM. It also gave an IC50 [26] of over 2.56 µM, an IC50 [27] of over 2.56 µM and an IC50 [28] of over 2.56 µM. It also gave an IC50 [29] of over 2.56 µM, an IC50 [30] of over 2.56 µM and an IC50 [31] of over 2.56 µM. For the same compound, the IC50 [32] was over 2.56 µM, the IC50 [33] was over 2.56 µM and the IC50 [34] was over 2.56 µM. For the same compound, the IC50 [35] was over 2.56 µM, the IC50 [36] was over 2.56 µM and the IC50 [37] was over 2.56 µM. The IC50 [38] was over 2.56 µM, the IC50 [39] was 1.38 µM and the IC50 [40] was over 2.56 µM. For the same compound, the IC50 [41] was over 2.56 µM, the IC50 [42] was over 2.56 µM and the IC50 [43] was over 2.56 µM. The IC50 [44] was over 2.56 µM and the IC50 [45] was over 2.56 µM.
With `Fc1cc(-c2cc[nH]/c(=N/c3ccc(-n4cnc(N5CCOCC5)n4)cc3)n2)cc(N2CCOCC2)c1` the IC50 [23] was 0.854 µM, the IC50 [24] was 0.717 µM and the IC50 [25] was 0.152 µM. The IC50 [26] was 0.944 µM, the IC50 [27] was 3.12 µM and the IC50 [28] was 0.624 µM. The IC50 [29] was 3.56 µM, the IC50 [30] was 0.405 µM and the IC50 [31] was over 5.12 µM. For the same compound, the IC50 [32] was 0.912 µM, the IC50 [33] was 3.95 µM and the IC50 [34] was 0.642 µM. It also gave an IC50 [35] of 1.82 µM, an IC50 [36] of 1.08 µM and an IC50 [37] of 0.416 µM. It also gave an IC50 [38] of 0.582 µM, an IC50 [39] of 0.174 µM and an IC50 [40] of 0.324 µM. For the same compound, the IC50 [41] was over 5.12 µM, the IC50 [42] was 0.66 µM and the IC50 [43] was 0.954 µM. For the same compound, the IC50 [44] was 3.04 µM and the IC50 [45] was over 5.12 µM.
Compound `Cc1[nH]c(/C=C2\C(=O)Nc3ccc(S(=O)(=O)Cc4c(Cl)cccc4Cl)cc32)c(C)c1C(=O)N1CCC[C@@H]1CN1CCCC1` [PHA-665752] has an IC50 [46] of over 2 µM, an IC50 [47] of over 2 µM and an IC50 [48] of over 2 µM. The IC50 [49] was over 2 µM, the IC50 [50] was over 2 µM and the IC50 [42] was over 2 µM. The IC50 [51] was over 2 µM.
With `CC[C@]1(O)C[C@@H]2CN(CCc3c([nH]c4ccccc34)[C@@](C(=O)OC)(c3cc4c(cc3OC)N(C)[C@H]3[C@@](O)(C(=O)OC)[C@H](OC(C)=O)[C@]5(CC)C=CCN6CC[C@]43[C@@H]65)C2)C1` [VINBLASTINE] the IC50 [1] was 0.0101 µM, the IC50 [2] was 0.00321 µM and the IC50 [3] was over 0.1 µM. It also gave an IC50 [4] of 0.00495 µM, an IC50 [5] of 0.0932 µM and an IC50 [6] of 0.0254 µM. The IC50 [7] was 0.00798 µM, the IC50 [8] was over 0.1 µM and the IC50 [9] was 0.0158 µM. For the same compound, the IC50 [10] was over 0.1 µM, the IC50 [11] was 0.00864 µM and the IC50 [12] was over 0.1 µM. It also gave an IC50 [13] of 0.00225 µM, an IC50 [14] of over 0.1 µM and an IC50 [15] of 0.0108 µM. For the same compound, the IC50 [16] was 0.00222 µM, the IC50 [17] was over 0.1 µM and the IC50 [18] was 0.0242 µM. It also gave an IC50 [19] of over 0.1 µM, an IC50 [20] of 0.0356 µM and an IC50 [21] of 0.0201 µM. It also gave an IC50 [22] of 0.0058 µM.
`CCCS(=O)(=O)Nc1ccc(F)c(C(=O)c2c[nH]c3ncc(Cl)cc23)c1F` [PLX-4720] showed an IC50 [1] of over 10 µM, an IC50 [2] of 6.01 µM and an IC50 [3] of over 10 µM. For the same compound, the IC50 [4] was over 10 µM, the IC50 [5] was over 10 µM and the IC50 [6] was over 10 µM. For the same compound, the IC50 [7] was over 10 µM, the IC50 [8] was over 10 µM and the IC50 [9] was over 10 µM. For the same compound, the IC50 [10] was over 10 µM, the IC50 [11] was over 10 µM and the IC50 [12] was over 10 µM. The IC50 [14] was over 10 µM, the IC50 [15] was over 10 µM and the IC50 [16] was over 10 µM. The IC50 [52] was over 10 µM, the IC50 [17] was over 10 µM and the IC50 [19] was over 10 µM. The IC50 [20] was over 10 µM, the IC50 [21] was over 10 µM and the IC50 [22] was over 10 µM.
